The values that follow come from patent US20250382264A1, “HETEROCYCLE-CONTAINING AMINO ACID COMPOUND AND COMPLEX” (AICHI STEEL CORPORATION, priority 2022, published 2025).

System in the first data set: not listed separately
As to the kind of experiment: Absorbance of aqueous iron complex solution irradiated with ultraviolet rays (253.7 nm). The settings on record: aqueous solution of the Fe complex of the named ligand, Fe 100 μM, pH 5.0, ultraviolet 253.7 nm, 10-mm cell. The class given is physicochemical. Here is the method: For comparison, absorbance measurement was performed using an aqueous solution of each of an iron complex of ethylenediaminetetraacetic acid (EDTA) (hereinafter, referred to as “Fe-EDTA”), an iron complex of diethylenetriamine-N,N,N',N'',N''-pentaacetic acid (DTPA) (hereinafter, referred to as “Fe-DTPA”), an iron complex of hydroxybenzylethylenediamine (HBED) (hereinafter, referred to as “Fe-HBED”), an iron complex of N,N'-ethylene-bis([…]) (hereinafter, referred to as “Fe-EDDHA”), an iron complex of citric acid, and an iron complex (hereinafter, referred to as “Fe-PDMA”) of a compound represented by the following formula (hereinafter, referred to as “PDMA”). […] Subsequently, a deionized water was added to fill up to 220 mL. This aqueous solution was left to stand at a temperature of 25° C. for 1 hour to yield an aqueous solution of an iron complex having an Fe concentration of 100 μM (5.6 ppm). Thereafter, the absorbance of this aqueous complex solution was measured. […] Subsequently, a deionized water was added to fill up to 220 mL. […] Thereafter, the absorbance of this aqueous complex solution was measured in the same manner as described above (see Table 1). […] Subsequently, about 220 mL of a deionized water was added to the resultant mixture to yield an aqueous complex solution having an Fe concentration of 100 μM (5.6 ppm).
Compound `O=C(O)[C@@H](O)CCN1CCC[C@H]1C(=O)O` [Compound V2] registered an Absorbance of 0.193. On to `N[C@@H](CCN1CCC[C@H]1C(=O)O)C(=O)O` [Compound V3], for which the Absorbance is 0.190. In the case of `CC(=O)N[C@@H](CCN1CCC[C@H]1C(=O)O)C(=O)O` [Compound V4], the Absorbance was determined as 0.144.

With `O=C(CO)N[C@@H](CCN1CCC[C@H]1C(=O)O)C(=O)O` [Compound V5], the Absorbance was found to be 0.350. The same measure, in the same setting: the value for `O=C(O)CN[C@@H](CCN1CCC[C@H]1C(=O)O)C(=O)O` [Compound V6] was 0.378; that for `CN(CCC(=O)O)[C@@H](CCN1CCC[C@H]1C(=O)O)C(=O)O` [Compound V7] was 0.354; that for `N[C@@H](CCN1CC[C@H]1C(=O)O)C(=O)O` [Compound V8] was 0.195.

`O=C(O)[C@@H](O)CCN1CC[C@H]1C(=O)O` [Compound V9] came in with an Absorbance of 0.332.

In turn, `O=C([O-])CN(CCN(CC(=O)[O-])CC(=O)[O-])CC(=O)[O-].[Fe+3]` [Fe-EDTA, iron complex of ethylenediaminetetraacetic acid] yielded an Absorbance of 1.452. Still for that read-out and setting: under `O=C(O)C(O)CCN[C@@H](CCN1CCC[C@H]1C(=O)O)C(=O)O` (stereo partly shown) [Fe-PDMA] stands 0.644; under “iron complex of diethylenetriamine-N,N,N′,N″,N″-pentaacetic acid [Fe-DTPA]”, 1.073. Still for that read-out and setting: the value for “iron complex of hydroxybenzylethylenediamine [Fe-HBED]” was 0.914.

The next data set has as its system corn variety "Launcher 82". Put plainly: Plant cultivation test (1): hydroponic cultivation of corn, leaf color (SPAD value). The class given is in vivo. The settings on record: 3 mL iron material with Fe 100 μM, 3rd day after administration, average of two pots. As for the experimental part: Seeds of corn variety “Launcher 82” were placed on a paper towel wetted with tap water. 8 days after germination, the seedlings were immersed in 45 mL of a hydroponic nutrient solution (a liquid based on the formulation in the Horticultural Experiment Station). 2 days after that, 3 mL of iron materials including various aqueous complex solutions were administered to the seedlings. Then, on the 3rd day after the administration of the iron materials, the leaf color (SPAD value) of corn was measured. This hydroponic cultivation was performed in two pots, and the average value of the SPAD values was calculated. For comparison, an experiment of administering only iron sulfate and an experiment of administering no iron material were also performed.
As to `O=S(=O)([O-])[O-].[Fe+2]` [Fe only, iron sulfate], the “SPAD value Average” value is on record as 9.5.
